Results: patent publication US20220289698A1, “INHIBITORS OF HUMAN ATGL” (Karl-Franzens-Universität Graz, priority 2019, published 2022)
pIC50, pKi: −log10 of the molar value. Read-outs that look alike come from different tables or passages of the source.

Columns and labels:
Stability in human serum = assay type: in vitro ADME; conditions: 37° C., HPLC MS
Description: Inhibitors were incubated in human serum for 0 or 3 h at 37° C. and subsequently extracted with the MTBE method and analyzed via HPLC MS. Samples measured in triplicates.

human ATGL [1] = target: T1, human ATGL (Homo sapiens, UniProt Q96AD5); test: Ki determination, human ATGL lysates with increasing substrate concentrations; assay type: biochemical; conditions: non-linear regression
T1 construct: made in house; host or cells: Expi cells (lysate, not purified)
T1 sequence (Q96AD5 1-504): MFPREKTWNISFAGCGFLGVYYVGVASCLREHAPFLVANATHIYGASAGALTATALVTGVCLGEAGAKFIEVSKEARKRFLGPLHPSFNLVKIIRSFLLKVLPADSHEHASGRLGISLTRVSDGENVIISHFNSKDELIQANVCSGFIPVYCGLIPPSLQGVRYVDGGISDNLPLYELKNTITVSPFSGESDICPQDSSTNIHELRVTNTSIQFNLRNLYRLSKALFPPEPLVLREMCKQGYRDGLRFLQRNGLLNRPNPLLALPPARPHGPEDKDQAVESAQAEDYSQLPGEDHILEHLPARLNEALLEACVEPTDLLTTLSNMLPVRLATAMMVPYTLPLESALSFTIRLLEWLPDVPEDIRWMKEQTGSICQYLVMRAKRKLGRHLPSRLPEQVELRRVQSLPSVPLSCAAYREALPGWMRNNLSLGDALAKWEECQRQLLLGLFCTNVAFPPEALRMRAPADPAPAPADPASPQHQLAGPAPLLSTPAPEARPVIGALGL
Description: For determination of Ki values, lysates from Expi cells overexpressing human ATGL were incubated with recombinant purified ATGL co-activator CGI-58 and ATGL inhibitors at a single concentration dependent on the previously determined IC50. Increasing concentrations of substrate containing radiolabeled triolein were added and liberated FA were extracted and quantified by liquid scintillation. Inhibitors were dissolved in DMSO which was used as control. Ki was determined via non-linear regression analysis. Samples were measured in triplicates.

human ATGL [2] = target: T1, human ATGL; test: TG hydrolase activity, Expi cell lysates expressing human ATGL + CGI-58, radiolabelled triolein; assay type: biochemical
Method in brief: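 Lysates of Expi cells expressing ATGL, supplemented with purified CGI-58 and inhibitor in DMSO, incubated 1 h at 37 °C with emulsified radiolabelled triolein (330 μM) in potassium phosphate pH 7.0 with 5% FA-free BSA. Released FA counted by liquid scintillation after phase extraction; IC50 versus DMSO control, duplicates.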

murine ATGL = target: T2, murine ATGL (Mus musculus, UniProt Q8BJ56); test: TG hydrolase activity, Expi lysates expressing mouse ATGL + CGI-58, radiolabelled triolein; assay type: biochemical
T2 construct: made in house; host or cells: Expi cells (lysate)
T2 sequence (Q8BJ56 1-486): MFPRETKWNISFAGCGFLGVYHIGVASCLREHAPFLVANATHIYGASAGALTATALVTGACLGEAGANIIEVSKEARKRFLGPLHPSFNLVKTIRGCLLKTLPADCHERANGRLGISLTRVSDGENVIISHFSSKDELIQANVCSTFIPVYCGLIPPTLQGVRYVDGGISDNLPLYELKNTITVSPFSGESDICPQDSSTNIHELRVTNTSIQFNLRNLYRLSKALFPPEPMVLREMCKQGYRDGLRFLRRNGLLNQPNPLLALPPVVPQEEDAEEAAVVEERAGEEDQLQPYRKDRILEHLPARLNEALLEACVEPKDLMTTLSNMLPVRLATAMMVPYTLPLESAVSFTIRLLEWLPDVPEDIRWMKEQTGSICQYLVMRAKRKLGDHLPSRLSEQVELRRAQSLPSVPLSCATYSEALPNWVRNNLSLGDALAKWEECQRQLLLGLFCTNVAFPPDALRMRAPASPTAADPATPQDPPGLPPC
Method in brief: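 Lysates of Expi cells overexpressing mouse ATGL, with added recombinant CGI-58, were incubated with inhibitor at 50 μM. Substrate was emulsified radiolabelled triolein with PC/PI in 100 mM potassium phosphate pH 7.0 and 5% FA-free BSA, 1 h at 37° C. Released FA were extracted and counted by scintillation; triplicates, DMSO control.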

[3] = tested on: differentiated hMADS adipocytes; test: Isoproterenol-stimulated lipolysis in differentiated hMADS adipocytes; assay type: cell-based; conditions: Homo sapiens, Adipocyte, 2 h pretreatment, 1 μM isoproterenol 1 h
Description: Human differentiated hMADS adipocytes were pretreated with DMSO or ATGL inhibitors for 2 h. Subsequently, lipolysis was stimulated with 1 μM Isoproterenol for 1 h and fatty acid release was determined from media via NEFA Reagent (Wako Diagnostics). Samples were measured in triplicates.
Human differentiated hMADS adipocytes were pretreated with DMSO or ATGL inhibitors for 2 h. Subsequently, lipolysis was stimulated with 1 μM Isoproterenol for 1 h and glycerol release was determined from media via Free glycerol reagent (Sigma Aldrich). Samples were measured in triplicates.

HepG2 cells = test: Toxicity screening (LDH) in HepG2 cells; assay type: cell-based, human; conditions: 24 h treatment, LDH release
Description: HepG2 cells were seeded in 96 well plates and at 50% confluency treated with DMSO (0.5% final conc.) or ATGL Inhibitors for 24 h in DMEM+P/S+3% heat inactivated FCS (3 h at 62° C.). Subsequently, LDH activity of 50 μl medium was determined via the Roche LDH Kit. Samples measured in triplicates.

[4] = tested on: differentiated SGBS adipocytes; test: Isoproterenol-stimulated lipolysis in differentiated SGBS adipocytes; assay type: cell-based; conditions: Homo sapiens, 2 h pretreatment, 1 μM isoproterenol 1 h
Description: Human differentiated SGBS adipocytes were pretreated with DMSO or ATGL inhibitors for 2 h. Subsequently, lipolysis was stimulated with 1 μM Isoproterenol for 1 h and fatty acid release was determined from media via NEFA Reagent (Wako Diagnostics). Samples were measured in triplicates.
Human differentiated SGBS adipocytes were pretreated with DMSO or ATGL inhibitors for 2 h. Subsequently, lipolysis was stimulated with 1 μM Isoproterenol for 1 h and glycerol release was determined from media via Free glycerol reagent (Sigma Aldrich). Samples were measured in triplicates.

hPNPLA9 = target: T3, hPNPLA9 (Homo sapiens, UniProt O60733); test: hPNPLA9 off-target inhibition; assay type: biochemical; conditions: read-out: hPNPLA9 off-target inhibition [% inhibition at 100 μM]
T3 construct: made in house; host or cells: Expi cells (lysate)
T3 sequence (O60733 1-806): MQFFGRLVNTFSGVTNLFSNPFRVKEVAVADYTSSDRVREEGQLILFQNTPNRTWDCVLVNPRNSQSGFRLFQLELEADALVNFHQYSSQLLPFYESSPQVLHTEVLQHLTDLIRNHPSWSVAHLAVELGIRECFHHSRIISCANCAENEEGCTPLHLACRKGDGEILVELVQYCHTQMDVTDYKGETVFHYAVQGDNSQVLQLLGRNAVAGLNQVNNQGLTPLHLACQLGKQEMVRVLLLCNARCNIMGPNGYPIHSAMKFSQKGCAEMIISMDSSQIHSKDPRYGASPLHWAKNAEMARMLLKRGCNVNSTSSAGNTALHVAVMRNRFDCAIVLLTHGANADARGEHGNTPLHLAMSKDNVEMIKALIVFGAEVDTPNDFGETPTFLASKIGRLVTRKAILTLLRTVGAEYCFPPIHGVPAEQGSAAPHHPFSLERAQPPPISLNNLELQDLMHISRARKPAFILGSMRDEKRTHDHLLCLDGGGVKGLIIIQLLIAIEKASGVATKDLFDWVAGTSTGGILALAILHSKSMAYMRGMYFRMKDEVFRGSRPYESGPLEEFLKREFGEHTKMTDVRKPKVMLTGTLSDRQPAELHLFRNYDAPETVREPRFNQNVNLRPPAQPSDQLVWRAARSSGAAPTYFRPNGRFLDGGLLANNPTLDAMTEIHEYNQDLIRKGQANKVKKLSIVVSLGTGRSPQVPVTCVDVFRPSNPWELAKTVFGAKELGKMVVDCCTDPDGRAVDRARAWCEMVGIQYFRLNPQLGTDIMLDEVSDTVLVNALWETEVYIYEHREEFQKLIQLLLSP
Description: Expi lysates expressing hPNPLA9 were treated with 100 μM Inhibitors and incubated with 1 mM C8 monoacylglycerol substrate (containing 5 mM CHAPS, 50 mM NaPh buffer ph7.4, 0.15 M NaCl) for 40 min. Glycerol release was determined via Free glycerol reagent (Sigma Aldrich). Samples measured in triplicates, […]

[5] = Example 237, read-out: Inhibition of human ATGL − IC50
[6] = 50 μM compound, Example 237, read-out: Inhibition of murine ATGL at 50 μM − mean [%]
[7] = fatty acid release, read-out: IC50 hMADS FA release
[8] = glycerol release, read-out: IC50 hMADS glycerol release
[9] = fatty acid release, read-out: IC50 SGBS FA release
[10] = glycerol release, read-out: IC50 SGBS glycerol release
[11] = 50 μM, overview table, read-out: mouse ATGL inhibition [% inhibition at 50 μM]

CCCCCCc1ccc(-c2cccc(C(=O)OC(C)C)n2)cc1 [Example 68]
melting point: 34 to 35 °C | Stability in human serum [% rest after 3 h incubation] (Stability in human serum): 80% | pKi (human ATGL [1]): 6.57 | pIC50 (human ATGL [2]; [5]): 5.82 | inhibition at 50 µM (murine ATGL; [6]): 0% | pIC50 [3, 7]: 6.00

CCCc1ccc(-c2cccc(C(=O)OC(C)C)n2)cc1 [Example 43]
melting point: 104 to 107 °C | Stability in human serum [% rest after 3 h incubation] (Stability in human serum): 80% | pKi (human ATGL [1]): 6.33 | pIC50 (human ATGL [2]; [5]): 5.70 | inhibition at 50 µM (murine ATGL; [6]): 9.8% | pIC50 [3, 7]: 5.52

CCCCCCOc1ccc(-c2cccc(C(=O)OC(C)C)n2)cc1 [Example 69]
melting point: 68 to 70 °C | Stability in human serum [% rest after 3 h incubation] (Stability in human serum): 80% | pKi (human ATGL [1]): 6.08 | pIC50 (human ATGL [2]; [5]): 6.00 | pIC50 [3, 8]: 4.10

CCCc1ccc(-c2cc(OC)cc(C(=O)OC(C)C)n2)cc1 [Example 53]
Stability in human serum [% rest after 3 h incubation] (Stability in human serum): 80% | pKi (human ATGL [1]): 6.26 | pIC50 (human ATGL [2]; [5]): 5.82 | inhibition at 50 µM (murine ATGL; [6]): 0% | pIC50 [3, 8]: 4.10

COCc1ccc(-c2cc(OC)cc(C(=O)OC(C)C)n2)cc1 [Example 61]
Stability in human serum [% rest after 3 h incubation] (Stability in human serum): 75% | pKi (human ATGL [1]): 6.38 | pIC50 (human ATGL [2]; [5]): 6.00 | Tox HepG2 (LDH) seen from (HepG2 cells): 50 µM | pIC50 [3, 7]: 5.70

CCOc1ccc(-c2cccc(C(=O)OC(C)C)n2)cc1 [Example 6]
pIC50 [4, 9]: 5.70 | inhibition at 100 µM (hPNPLA9): 0% | pIC50 (human ATGL [2]; [5]): 5.52 | inhibition at 50 µM (murine ATGL; [6]): 0%

C=CC(C)OC(=O)c1csc(-c2ccc(OCC)cc2)n1 (stereo not drawn) [Example 148, But-3-en-2-yl 2-(4-ethoxyphenyl)thiazole-4-carboxylate]
pIC50 [4, 9]: 5.70 | pIC50 [4, 10]: 5.52 | pIC50 (human ATGL [2]; [5]): 5.70 | inhibition at 50 µM (murine ATGL; [11]): 30%

C#CC(C)OC(=O)c1csc(-c2ccc(OCC)cc2)n1 (stereo not drawn) [Example 157, But-3-yn-2-yl 2-(4-ethoxyphenyl)thiazole-4-carboxylate]
pKi (human ATGL [1]): 6.68 | pIC50 (human ATGL [2]; [5]): 6.05 | pIC50 [3, 7]: 5.60 | pIC50 [3, 8]: 5.30

C=C(C)COC(=O)c1csc(-c2ccc(OCC)cc2)n1 [Example 120, 2-Methylallyl 2-(4-ethoxyphenyl)thiazole-4-carboxylate]
Stability in human serum [% rest after 3 h incubation] (Stability in human serum): 5% | pKi (human ATGL [1]): 5.92 | pIC50 (human ATGL [2]; [5]): 5.40 | inhibition at 50 µM (murine ATGL; [6]): 40.5% | inhibition at 50 µM (murine ATGL; [11]): 40%

CCCCCCCOc1ccc(-c2cccc(C(=O)OC(C)C)n2)cc1 [Example 86]
melting point: 64 to 66 °C | Stability in human serum [% rest after 3 h incubation] (Stability in human serum): 80% | pKi (human ATGL [1]): 6.33 | pIC50 (human ATGL [2]; [5]): 5.82 | inhibition at 50 µM (murine ATGL; [6]): 0% | pIC50 [3, 7]: 6.00

CCCOc1ccc(-c2nc(C(=O)OCC)cs2)cc1 [Example 105, Ethyl 2-(4-propoxyphenyl)thiazole-4-carboxylate]
pIC50 [4, 9]: 5.52 | pIC50 [4, 10]: 5.52 | pIC50 (human ATGL [2]; [5]): 5.52 | inhibition at 50 µM (murine ATGL; [6]): 12.2%

CCOC(=O)c1csc(-c2ccc(OCC)cc2)n1 [Example 101, Ethyl 2-(4-ethoxyphenyl)thiazole-4-carboxylate]
Stability in human serum [% rest after 3 h incubation] (Stability in human serum): 25% | pKi (human ATGL [1]): 5.60 | pIC50 [4, 9]: 5.52 | pIC50 [4, 10]: 5.52 | pIC50 (human ATGL [2]; values of text and figure legend, read-out: IC50 on human ATGL (hATGL)): 5.60 | inhibition at 50 µM (murine ATGL; [6]): 23.6% | inhibition at 50 µM (murine ATGL; [11]): 30%

CC(C)OC(=O)c1cccc(-c2ccc(C(F)(F)F)cc2)n1 [Example 41]
melting point: 98 to 99 °C | Stability in human serum [% rest after 3 h incubation] (Stability in human serum): 75% | pKi (human ATGL [1]): 5.60 | pIC50 (human ATGL [2]; [5]): 5.52 | inhibition at 50 µM (murine ATGL; [6]): 28.2%
